Data: patent publication US10849875B2, “Cancer specific lipid targeted peptidomimetics” (University of Houston System, priority 2015, dated 2020)
Entries after “also recorded” stand apart in the source; their conditions may differ. Positions of bridges follow the written chain, without caps; N, C: chain ends. Non-standard residues stand in square brackets, D forms with d. Residues, ends and D or L forms follow the SMILES beside them. Chains are numbered I, II in the order given. Gly(N-piperonyl) = O=C(O)CNCc1ccc2c(c1)OCO2; N(4-MeOBn)Gly = COc1ccc(CNCC(=O)O)cc1; Nrpe = C[C@@H](NCC(=O)O)c1ccccc1; Nlys = NCCCCNCC(=O)O

System: H460 xenografts
Experiment: Inhibition of growth of H460 lung cancer xenograft
Type: in vivo, mice
Conditions: for tumor size reduction: H460 in nude mice, daily dose of 0.5 mg/mL
Experimental: Whether PPS1D1 would inhibit tumor growth in a murine model was examined. H460 cells were implanted in nude mice. Tumors were allowed grow until it reach […]. These xenografts were then treated with a daily dose of […] in four different groups that consist of PPS1D1 alone, docetaxel alone, PPS1D1 and docetaxel together or with the control peptoid (PC462D1) alone. Docetaxel is a standard chemotherapeutic treatment for non-small cell carcinoma. The activity of PPSD1 and its ability to work as a combination treatment were examined. […] This effect was extremely potent and the tumor growth was completely controlled. […] It has been reported that chemotherapy and radiation therapy increase the PS flipping in tumor microenvironment. Therefore, Docetaxel might have helped improve binding of PPS1D1 on cancer cell surface that is now displaying an increased amount of PS to be targeted. After the standard chemotherapy and radiation therapy, the target PS is highly abundant for the drug to recognize and attack.
The effect of PPS1D1 on the growth of H460 xenografts implanted in NOD/SCID immunodeficient mice was examined. Immunodeficient animals were chosen to facilitate the growth of human tumor xenografts. […] Therapy with a control peptoid (PC462D1, 0.25 mg/mouse, 3×/week ip), PPS1D1 (0.25 mg/mouse, 3×/week ip), docetaxel (0.5 mg/kg, 2×/week, ip) or the combination of PPS1D1+docetaxel was initiated when tumors were ˜100 mm3 in volume. […] Tumor tissue was harvested after 4 weeks of therapy and assessed for cell proliferation and apoptosis by immunohistochemistry. […] It is clear from studies with bavituximab that standard chemotherapy (e.g., taxanes) increases the exposure of PS resulting in elevated binding of the PS targeting agent. A similar mechanism can underlie the enhanced activity of docetaxel and PPS1D1.
All animals were housed in a pathogen-free facility with continuous access to food and water. Mice were purchased from the core breeding facility at UT Southwestern. Six to eight-week-old female NOD/SCID mice were injected with 2.5×10^6 H460 cells subcutaneously. Tumor volume was followed by twice weekly measurements with Vernier calipers. Animals were randomized and treatment was initiated with mean tumor volume of each group was 100 mm3. Four different groups used were: (I) control PC462D1, (II) PPS1D1, (III) docetaxel, and (IV) combination of PPS1D1+docetaxel. Mice (n=8/group) were treated with PPS1D1 or PC462D1 in saline by ip injection at a dose of 0.25 mg/mouse, 3 times per week on a M-W-F schedule. Docetaxel from the UT Southwestern Clinical pharmacy was diluted in saline and delivered 2×/week ip at 5 mg/kg. Animals were sacrificed after 4 weeks of therapy. Tumor tissue was snap frozen, sectioned and stained with antibodies specific for phospho-Histone H3 (Millipore, #06-570) and cleaved caspase 3 (Cell Signaling, #9664). Reactivity was developed with appropriate fluorescently conjugated secondary antibodies (Jackson ImmunoResearch) and mounted with Prolong Gold with DAPI (Invitrogen), coverslipped and evaluated by fluorescence microscopy.

**Q.** How did the “tumor growth (tumor volume vs days post therapy initiation)” value (H460 in NOD/SCID mice, peptoids 0.25 mg/mouse 3x/week ip, docetaxel 0.5 mg/kg 2x/week ip) turn out when `COc1ccc(CN(CC(=O)N(CCCCN)CC(=O)N[C@@H](CCCCN)C(=O)N[C@H](CCCCN)C(=O)N[C@@H](CCSC)C(=O)NCCCC[C@H](NC(=O)[C@H](CCSC)NC(=O)[C@@H](CCCCN)NC(=O)[C@H](CCCCN)NC(=O)CN(CCCCN)C(=O)CN(Cc2ccc(OC)cc2)C(=O)CN(C(=O)CN(Cc2ccc3c(c2)OCO3)C(=O)CN[C@H](C)c2ccccc2)[C@H](C)c2ccccc2)C(N)=O)C(=O)CN(C(=O)CN(Cc2ccc3c(c2)OCO3)C(=O)CN[C@H](C)c2ccccc2)[C@H](C)c2ccccc2)cc1` [PPS1D1] (I: H-[Nrpe][Gly(N-piperonyl)][Nrpe][N(4-MeOBn)Gly][Nlys]K[dK]MK-NH2 / II: H-[Nrpe][Gly(N-piperonyl)][Nrpe][N(4-MeOBn)Gly][Nlys]K[dK]M; amide I:9-II:C; N-terminus assumed) was run?
**A.** Its value is “slowed tumor growth”.

**Q.** And the tumor size reduction?
**A.** The tumor size reduction was “strong tumor burden effect; also recorded: equally effective in reducing the size of the tumors”.

**Q.** What about the tumor size reduction (listed as PPSD1) of the same compound?
**A.** The tumor size reduction was “slightly better effect”.

**Q.** What about the animal weight loss (at the doses used) of the same compound?
**A.** The animal weight loss was “did not induce animal weight loss”.
